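Cells were grown in 96-well plates and exposed to each compound for 48 hours at five concentrations; endpoints were interpolated linearly between bracketing concentrations, or set to the highest concentration if not reached. GI50 is the concentration that inhibits growth by half.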 Calls of active or inactive are those of the source. No stated cut-off is given here; in the data, active = GI50 up to about 1.1 µM and inactive = higher.
Columns and labels:
Test in all cases: inhibition of tumour cell growth, NCI panel, 48 h
HCC 2998 = test system: HCC 2998
HCT-116 = test system: HCT-116
LOX IMVI = test system: LOX IMVI
MCF7 = test system: MCF7
MOLT-4 = test system: MOLT-4
NCI-H460 = test system: NCI-H460
OVCAR-3 = test system: OVCAR-3
OVCAR-4 = test system: OVCAR-4
RPMI-8226 = test system: RPMI-8226
RXF 393 = test system: RXF 393
SF-295 = test system: SF-295
SF-539 = test system: SF-539
SN12C = test system: SN12C
SW-620 = test system: SW-620
U-251 = test system: U-251
UACC-62 = test system: UACC-62
MDA-MB-435 = test system: MDA-MB-435
PC-3 = test system: PC-3
SR = test system: SR
TK-10 = test system: TK-10

Compound | GI50 (HCC 2998) | GI50 (HCT-116) | GI50 (LOX IMVI) | GI50 (MCF7) | GI50 (MOLT-4) | GI50 (NCI-H460) | GI50 (OVCAR-3) | GI50 (OVCAR-4) | GI50 (RPMI-8226) | GI50 (RXF 393) | GI50 (SF-295) | GI50 (SF-539) | GI50 (SN12C) | GI50 (SW-620) | GI50 (U-251) | GI50 (UACC-62) | GI50 (MDA-MB-435) | GI50 (PC-3) | GI50 (SR) | GI50 (TK-10)
CC1(C)N=C(N)N=C(N)N1c1ccc(OCCCOc2ccccc2)c(Cl)c1 | 0.315 µM (active) | 0.026 µM (active) | 0.0457 µM (active) | 0.327 µM (active) | 0.0336 µM (active) | 0.0457 µM (active) | 0.406 µM (active) | 0.156 µM (active) | 0.547 µM (active) | 0.479 µM (active) | 0.538 µM (active) | 0.336 µM (active) | 0.202 µM (active) | 0.0356 µM (active) | < 0.0236 µM (active) | 0.472 µM (active) |  |  |  | 
Oc1cc(CF)nc(S)n1 | > 100 µM (inactive) | > 100 µM (inactive) | > 100 µM (inactive) |  | > 100 µM (inactive) | > 100 µM (inactive) | > 100 µM (inactive) | > 100 µM (inactive) |  | > 100 µM (inactive) | > 100 µM (inactive) |  | > 100 µM (inactive) | > 100 µM (inactive) | > 100 µM (inactive) | > 100 µM (inactive) | > 100 µM (inactive) | > 100 µM (inactive) | > 100 µM (inactive) | > 100 µM (inactive)
COc1cc2c(oc(=O)c3c4occc4cc(OC)c23)c2cccc(OCc3ccccc3)c12 | > 100 µM (inactive) | > 100 µM (inactive) | > 100 µM (inactive) |  | > 100 µM (inactive) | 44.9 µM (inactive) | > 100 µM (inactive) | 44.4 µM (inactive) | > 100 µM (inactive) | 78.3 µM (inactive) | 88.9 µM (inactive) | > 100 µM (inactive) | > 100 µM (inactive) | > 100 µM (inactive) | > 100 µM (inactive) | 86.1 µM (inactive) |  |  | > 100 µM (inactive) | > 100 µM (inactive)
C=CCn1c(=O)c(C)cn(COCCO)c1=O | > 100 µM (inactive) |  | > 100 µM (inactive) | > 100 µM (inactive) | > 100 µM (inactive) | > 100 µM (inactive) | > 100 µM (inactive) |  | > 100 µM (inactive) | > 100 µM (inactive) |  | > 100 µM (inactive) | > 100 µM (inactive) | > 100 µM (inactive) | > 100 µM (inactive) |  | > 100 µM (inactive) | > 100 µM (inactive) |  | > 100 µM (inactive)
CN(C)c1c(C2OC(CO)C(O)C2O)c(=O)c1=O (configuration not stated) | > 100 µM (inactive) | > 100 µM (inactive) | > 100 µM (inactive) |  | > 100 µM (inactive) | > 100 µM (inactive) | > 100 µM (inactive) | > 100 µM (inactive) | > 100 µM (inactive) | > 100 µM (inactive) |  | < 0.01 µM (active) | > 100 µM (inactive) | > 100 µM (inactive) | > 100 µM (inactive) | > 100 µM (inactive) | > 100 µM (inactive) | > 100 µM (inactive) | > 100 µM (inactive) | > 100 µM (inactive)
CC(C)C1CN1CC(O)Cn1ccnc1[N+](=O)[O-] (configuration not stated) | > 100 µM (inactive) | > 100 µM (inactive) |  | > 100 µM (inactive) | > 100 µM (inactive) | > 100 µM (inactive) | > 100 µM (inactive) | > 100 µM (inactive) |  |  | > 100 µM (inactive) | > 100 µM (inactive) | > 100 µM (inactive) | > 100 µM (inactive) | > 100 µM (inactive) | > 100 µM (inactive) |  | > 100 µM (inactive) |  | > 100 µM (inactive)
CCCCCCCCCCCC[N+](CCCCCCCCCCCC)=C1SCCS1 | 10.3 µM (inactive) | 2.84 µM (inactive) | 1.97 µM (inactive) |  | 2.98 µM (inactive) | 7.28 µM (inactive) | 7.76 µM (inactive) | 3.6 µM (inactive) | 1.49 µM (inactive) | 3.45 µM (inactive) | 3.05 µM (inactive) | 12.5 µM (inactive) | 3.92 µM (inactive) | 3.29 µM (inactive) | 3.26 µM (inactive) | 10.8 µM (inactive) |  |  | 3.14 µM (inactive) | 15.2 µM (inactive)
CCN(CCCN(CC)C(=O)Nc1c(C)cccc1C)C(=O)Nc1c(C)cccc1C | > 100 µM (inactive) | > 100 µM (inactive) | > 100 µM (inactive) | > 100 µM (inactive) | > 100 µM (inactive) | > 100 µM (inactive) |  | > 100 µM (inactive) | > 100 µM (inactive) | 43.1 µM (inactive) | > 100 µM (inactive) |  | > 100 µM (inactive) | > 100 µM (inactive) | > 100 µM (inactive) | > 100 µM (inactive) | > 100 µM (inactive) | > 100 µM (inactive) |  | > 100 µM (inactive)
COc1ccc(CCN2CCC(C#N)(c3ccc(OC)c(OC)c3)CC2)cc1OC | > 100 µM (inactive) | > 100 µM (inactive) | > 100 µM (inactive) |  | > 100 µM (inactive) | > 100 µM (inactive) | > 100 µM (inactive) | > 100 µM (inactive) | > 100 µM (inactive) | 49.1 µM (inactive) | 79.6 µM (inactive) | > 100 µM (inactive) | > 100 µM (inactive) | > 100 µM (inactive) | > 100 µM (inactive) | > 100 µM (inactive) |  |  | > 100 µM (inactive) | 76.2 µM (inactive)
Cc1ccc2[nH]c3[nH]c(=S)[nH]c(=O)c3c2c1 | > 100 µM (inactive) | > 100 µM (inactive) | > 100 µM (inactive) | > 100 µM (inactive) | 97.5 µM (inactive) |  | 72.9 µM (inactive) |  | 72.8 µM (inactive) | > 100 µM (inactive) | > 100 µM (inactive) | > 100 µM (inactive) | > 100 µM (inactive) | > 100 µM (inactive) |  | > 100 µM (inactive) | > 100 µM (inactive) |  | > 100 µM (inactive) | > 100 µM (inactive)
O=[N+]([O-])c1cc(Cl)cc2cc(Cl)cnc12 | > 100 µM (inactive) | 95.1 µM (inactive) | > 100 µM (inactive) |  | > 100 µM (inactive) | > 100 µM (inactive) | > 100 µM (inactive) | 35.7 µM (inactive) | > 100 µM (inactive) | > 100 µM (inactive) | > 100 µM (inactive) | > 100 µM (inactive) | > 100 µM (inactive) | > 100 µM (inactive) | > 100 µM (inactive) | 53.2 µM (inactive) | > 100 µM (inactive) | 93.5 µM (inactive) | 63.8 µM (inactive) | > 100 µM (inactive)
COC1OC2COC(C)(C)OC2C2OC(C)(C)OC12 (configuration not stated) | > 100 µM (inactive) | > 100 µM (inactive) |  | 23.6 µM (inactive) | 25.3 µM (inactive) |  | > 100 µM (inactive) | 22.2 µM (inactive) | 17 µM (inactive) | 23.7 µM (inactive) | 22.6 µM (inactive) |  | 21 µM (inactive) | > 100 µM (inactive) | 24.5 µM (inactive) | 45.1 µM (inactive) | > 100 µM (inactive) | 80.5 µM (inactive) |  | 49.8 µM (inactive)
O=C(c1ccccc1)n1cc(-c2ccccc2)c2c(=O)nc[nH]c21 | > 100 µM (inactive) | > 100 µM (inactive) | > 100 µM (inactive) | > 100 µM (inactive) | > 100 µM (inactive) |  | > 100 µM (inactive) | > 100 µM (inactive) | > 100 µM (inactive) | > 100 µM (inactive) | > 100 µM (inactive) | > 100 µM (inactive) | > 100 µM (inactive) | > 100 µM (inactive) | > 100 µM (inactive) | > 100 µM (inactive) | > 100 µM (inactive) | > 100 µM (inactive) |  | > 100 µM (inactive)
O=C(/C(=C\c1ccccc1)CN1CCOCC1)c1ccc(Br)cc1 | 16 µM (inactive) | 1.72 µM (inactive) | 1.65 µM (inactive) |  | 2.33 µM (inactive) | 3.01 µM (inactive) | 2.44 µM (inactive) | 2.77 µM (inactive) | 2.43 µM (inactive) | 2.51 µM (inactive) | 5.97 µM (inactive) | 2.12 µM (inactive) | 2.06 µM (inactive) | 1.18 µM (inactive) | 2.51 µM (inactive) | 1.55 µM (inactive) |  |  | 1.16 µM (inactive) | 5.37 µM (inactive)
O=[N+]([O-])c1ccc(/N=N/c2c(O)ccc3cc(S(=O)(=O)O)cc(S(=O)(=O)O)c23)cc1 |  | > 100 µM (inactive) | > 100 µM (inactive) |  | > 100 µM (inactive) |  | > 100 µM (inactive) | > 100 µM (inactive) | > 100 µM (inactive) | > 100 µM (inactive) | > 100 µM (inactive) |  | > 100 µM (inactive) | > 100 µM (inactive) | > 100 µM (inactive) | > 100 µM (inactive) | > 100 µM (inactive) | > 100 µM (inactive) | > 100 µM (inactive) | > 100 µM (inactive)
Cc1c(S(=O)(=O)N/C(=N\O)Nc2ccc(Cl)cc2)sc2ccc(Cl)cc12 |  | 13.9 µM (inactive) | 17 µM (inactive) |  | 27.2 µM (inactive) | 24.8 µM (inactive) | 11.3 µM (inactive) | 16.9 µM (inactive) |  | 22.3 µM (inactive) | 17.6 µM (inactive) | 21.5 µM (inactive) | 20.3 µM (inactive) | 25.1 µM (inactive) | 16.1 µM (inactive) | 16.1 µM (inactive) | 16.3 µM (inactive) | 17.1 µM (inactive) |  | 16.9 µM (inactive)

— ChEMBL document CHEMBL1201862, “PubChem BioAssay data set” (2004)
